PubChem BioAssay (NCI)
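In this assay, cells in 96-well plates receive the compound at five concentrations for 48 hours. Endpoints are linearly interpolated between the surrounding concentrations. The concentration for full growth arrest is given as TGI.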

How the values were obtained:
Test in all cases: NCI tumour cell line growth inhibition, 48 h
SK-MEL-28 melanoma = test system: SK-MEL-28 melanoma
RPMI-8226 leukemia = test system: RPMI-8226 leukemia
DLD-1 colon = test system: DLD-1 colon
SF-268 CNS = test system: SF-268 CNS
HOP-18 NSCLC = test system: HOP-18 NSCLC
TK-10 renal = test system: TK-10 renal
ACHN renal = test system: ACHN renal
HCT-116 colon = test system: HCT-116 colon
EKVX NSCLC = test system: EKVX NSCLC
SK-MEL-2 melanoma = test system: SK-MEL-2 melanoma
UACC-257 melanoma = test system: UACC-257 melanoma
786-0 renal = test system: 786-0 renal
HCC-2998 colon = test system: HCC-2998 colon
SR leukemia = test system: SR leukemia
HCT-15 colon = test system: HCT-15 colon
SNB-19 CNS = test system: SNB-19 CNS
NCI-H23 lung = test system: NCI-H23 lung
UO-31 renal = test system: UO-31 renal
HL-60(TB) leukemia = test system: HL-60(TB) leukemia
SN12C renal = test system: SN12C renal
LOX IMVI melanoma = test system: LOX IMVI melanoma
M19-MEL melanoma = test system: M19-MEL melanoma
CAKI-1 renal = test system: CAKI-1 renal
MALME-3M melanoma = test system: MALME-3M melanoma
CCRF-CEM leukemia = test system: CCRF-CEM leukemia
HT29 colon = test system: HT29 colon
NCI-H460 lung = test system: NCI-H460 lung
HOP-62 NSCLC = test system: HOP-62 NSCLC
OVCAR-8 ovarian = test system: OVCAR-8 ovarian
OVCAR-4 ovarian = test system: OVCAR-4 ovarian
DMS 114 small cell lung = test system: DMS 114 small cell lung
KM12 colon = test system: KM12 colon
MOLT-4 leukemia = test system: MOLT-4 leukemia
NCI-H226 lung = test system: NCI-H226 lung
SK-MEL-5 melanoma = test system: SK-MEL-5 melanoma
DMS 273 small cell lung = test system: DMS 273 small cell lung
OVCAR-5 ovarian = test system: OVCAR-5 ovarian
M14 melanoma = test system: M14 melanoma
K-562 leukemia = test system: K-562 leukemia
SNB-78 CNS = test system: SNB-78 CNS
OVCAR-3 ovarian = test system: OVCAR-3 ovarian
COLO 205 colon = test system: COLO 205 colon
SW-620 colon = test system: SW-620 colon
XF 498 CNS = test system: XF 498 CNS
SF-539 CNS = test system: SF-539 CNS
SNB-75 CNS = test system: SNB-75 CNS
A549 NSCLC = test system: A549 NSCLC
SF-295 CNS = test system: SF-295 CNS
KM20L2 colon = test system: KM20L2 colon
HOP-92 NSCLC = test system: HOP-92 NSCLC
SK-OV-3 ovarian = test system: SK-OV-3 ovarian
UACC-62 melanoma = test system: UACC-62 melanoma
U251 CNS = test system: U251 CNS
LXFL 529 NSCLC = test system: LXFL 529 NSCLC
IGROV1 ovarian = test system: IGROV1 ovarian
A498 renal = test system: A498 renal
RXF 393 renal = test system: RXF 393 renal
NCI-H522 lung = test system: NCI-H522 lung

## Cc1cc([N+](=O)[O-])c(C)c2c1[nH]c1ccc(O)cc12
SK-MEL-28 melanoma
  TGI: > 100 µM
RPMI-8226 leukemia
  TGI: 79 µM
DLD-1 colon
  TGI: 43.7 µM
SF-268 CNS
  TGI: > 100 µM
HOP-18 NSCLC
  TGI: > 100 µM
TK-10 renal
  TGI: > 100 µM
ACHN renal
  TGI: > 100 µM
HCT-116 colon
  TGI: > 100 µM
EKVX NSCLC
  TGI: > 100 µM
SK-MEL-2 melanoma
  TGI: > 100 µM
UACC-257 melanoma
  TGI: > 100 µM
786-0 renal
  TGI: > 100 µM
HCC-2998 colon
  TGI: > 100 µM
SR leukemia
  TGI: > 100 µM
HCT-15 colon
  TGI: > 100 µM
SNB-19 CNS
  TGI: > 100 µM
NCI-H23 lung
  TGI: > 100 µM
UO-31 renal
  TGI: > 100 µM
HL-60(TB) leukemia
  TGI: 63 µM
SN12C renal
  TGI: > 100 µM
LOX IMVI melanoma
  TGI: > 100 µM
M19-MEL melanoma
  TGI: > 100 µM
CAKI-1 renal
  TGI: > 100 µM
MALME-3M melanoma
  TGI: > 100 µM
CCRF-CEM leukemia
  TGI: > 100 µM
HT29 colon
  TGI: > 100 µM
NCI-H460 lung
  TGI: > 100 µM
HOP-62 NSCLC
  TGI: > 100 µM
OVCAR-8 ovarian
  TGI: > 100 µM
OVCAR-4 ovarian
  TGI: > 100 µM
DMS 114 small cell lung
  TGI: > 100 µM
KM12 colon
  TGI: > 100 µM
MOLT-4 leukemia
  TGI: > 100 µM
NCI-H226 lung
  TGI: > 100 µM
SK-MEL-5 melanoma
  TGI: > 100 µM
DMS 273 small cell lung
  TGI: > 100 µM
OVCAR-5 ovarian
  TGI: > 100 µM
M14 melanoma
  TGI: > 100 µM
K-562 leukemia
  TGI: > 100 µM
SNB-78 CNS
  TGI: > 100 µM
OVCAR-3 ovarian
  TGI: > 100 µM
COLO 205 colon
  TGI: > 100 µM
SW-620 colon
  TGI: > 100 µM
XF 498 CNS
  TGI: > 100 µM
SF-539 CNS
  TGI: > 100 µM
SNB-75 CNS
  TGI: > 100 µM
A549 NSCLC
  TGI: > 100 µM
SF-295 CNS
  TGI: > 100 µM

## Cn1cnc([N+](=O)[O-])c1Sc1nc2ncccc2[nH]1
SK-MEL-28 melanoma
  TGI: > 100 µM
RPMI-8226 leukemia
  TGI: > 100 µM
DLD-1 colon
  TGI: > 100 µM
KM20L2 colon
  TGI: > 100 µM
HOP-92 NSCLC
  TGI: > 100 µM
SF-268 CNS
  TGI: > 100 µM
HOP-18 NSCLC
  TGI: > 100 µM
TK-10 renal
  TGI: > 100 µM
ACHN renal
  TGI: > 100 µM
HCT-116 colon
  TGI: > 100 µM
EKVX NSCLC
  TGI: > 100 µM
UACC-257 melanoma
  TGI: > 100 µM
786-0 renal
  TGI: > 100 µM
HCC-2998 colon
  TGI: > 100 µM
SR leukemia
  TGI: > 100 µM
HCT-15 colon
  TGI: > 100 µM
SK-OV-3 ovarian
  TGI: > 100 µM
SNB-19 CNS
  TGI: > 100 µM
NCI-H23 lung
  TGI: > 100 µM
UO-31 renal
  TGI: > 100 µM
UACC-62 melanoma
  TGI: > 100 µM
HL-60(TB) leukemia
  TGI: 62.6 µM
SN12C renal
  TGI: > 100 µM
LOX IMVI melanoma
  TGI: > 100 µM
CAKI-1 renal
  TGI: 85.6 µM
U251 CNS
  TGI: > 100 µM
MALME-3M melanoma
  TGI: > 100 µM
CCRF-CEM leukemia
  TGI: 64.2 µM
HT29 colon
  TGI: > 100 µM
LXFL 529 NSCLC
  TGI: > 100 µM
NCI-H460 lung
  TGI: > 100 µM
HOP-62 NSCLC
  TGI: > 100 µM
OVCAR-8 ovarian
  TGI: > 100 µM
OVCAR-4 ovarian
  TGI: > 100 µM
IGROV1 ovarian
  TGI: > 100 µM
DMS 114 small cell lung
  TGI: 74.4 µM
KM12 colon
  TGI: > 100 µM
MOLT-4 leukemia
  TGI: > 100 µM
NCI-H226 lung
  TGI: > 100 µM
SK-MEL-5 melanoma
  TGI: > 100 µM
OVCAR-5 ovarian
  TGI: > 100 µM
M14 melanoma
  TGI: > 100 µM
K-562 leukemia
  TGI: > 100 µM
SNB-78 CNS
  TGI: > 100 µM
OVCAR-3 ovarian
  TGI: > 100 µM
COLO 205 colon
  TGI: 56.5 µM
SW-620 colon
  TGI: > 100 µM
A498 renal
  TGI: > 100 µM
XF 498 CNS
  TGI: > 100 µM
SF-539 CNS
  TGI: > 100 µM
SNB-75 CNS
  TGI: > 100 µM
A549 NSCLC
  TGI: > 100 µM
RXF 393 renal
  TGI: > 100 µM
SF-295 CNS
  TGI: > 100 µM

## CCSc1nc(-c2ccc(OC)cc2)c(C#N)c(=O)n1C1OCC(OC(C)=O)C(OC(C)=O)C1OC(C)=O (centres undefined)
SK-MEL-28 melanoma
  TGI: > 100 µM
RPMI-8226 leukemia
  TGI: > 100 µM
DLD-1 colon
  TGI: > 100 µM
KM20L2 colon
  TGI: > 100 µM
HOP-92 NSCLC
  TGI: > 100 µM
SF-268 CNS
  TGI: > 100 µM
HOP-18 NSCLC
  TGI: > 100 µM
TK-10 renal
  TGI: > 100 µM
ACHN renal
  TGI: > 100 µM
HCT-116 colon
  TGI: > 100 µM
EKVX NSCLC
  TGI: > 100 µM
SK-MEL-2 melanoma
  TGI: > 100 µM
UACC-257 melanoma
  TGI: > 100 µM
786-0 renal
  TGI: > 100 µM
HCC-2998 colon
  TGI: > 100 µM
SR leukemia
  TGI: > 100 µM
HCT-15 colon
  TGI: > 100 µM
SK-OV-3 ovarian
  TGI: > 100 µM
SNB-19 CNS
  TGI: > 100 µM
NCI-H23 lung
  TGI: > 100 µM
UO-31 renal
  TGI: > 100 µM
UACC-62 melanoma
  TGI: > 100 µM
SN12C renal
  TGI: > 100 µM
M19-MEL melanoma
  TGI: > 100 µM
CAKI-1 renal
  TGI: > 100 µM
U251 CNS
  TGI: > 100 µM
MALME-3M melanoma
  TGI: > 100 µM
HT29 colon
  TGI: > 100 µM
LXFL 529 NSCLC
  TGI: > 100 µM
NCI-H460 lung
  TGI: > 100 µM
HOP-62 NSCLC
  TGI: > 100 µM
OVCAR-4 ovarian
  TGI: > 100 µM
IGROV1 ovarian
  TGI: > 100 µM
DMS 114 small cell lung
  TGI: > 100 µM
KM12 colon
  TGI: > 100 µM
MOLT-4 leukemia
  TGI: > 100 µM
NCI-H226 lung
  TGI: > 100 µM
SK-MEL-5 melanoma
  TGI: > 100 µM
DMS 273 small cell lung
  TGI: > 100 µM
OVCAR-5 ovarian
  TGI: > 100 µM
M14 melanoma
  TGI: > 100 µM
K-562 leukemia
  TGI: > 100 µM
SNB-78 CNS
  TGI: > 100 µM
COLO 205 colon
  TGI: > 100 µM
SW-620 colon
  TGI: > 100 µM
A498 renal
  TGI: > 100 µM
SF-539 CNS
  TGI: > 100 µM
SNB-75 CNS
  TGI: > 100 µM
NCI-H522 lung
  TGI: > 100 µM
A549 NSCLC
  TGI: > 100 µM
RXF 393 renal
  TGI: > 100 µM
SF-295 CNS
  TGI: > 100 µM
